Results reported in patent US20230346948A1, “Lipid conjugated peptide inhibitors of PICK1” (University of Copenhagen, priority 2020, published 2023).
Where two headings read alike, the source gives them in different places.

Assays:
[1] = Plasma exposure after s.c. injection, LC-MS; type: in vivo; conditions: male, C57BL/6N, mouse, sc; for Cmax: at 1 h, read-out: maximal plasma concentration
Method: Three point on the down-slope was determined from 3 points on the elimination phase.

[2] = test system: thermal hypersensitivity (CFA model); assay: Hargreaves test, thermal hypersensitivity in CFA model; type: in vivo, mice; conditions: s.c. 10 μmol/kg
Method: Inflammatory pain (CFA model): Animals were habituated to the experimental room for a minimum of 60 min before initiation of the experiment. Hargreave's test was performed by application of radiant heat light to the plantar surface of both hindpaw. The response latency was measured by an automated readout (Ugo Basile, Italy). The baseline paw withdrawal latency of both hind paws in response to radiant heat stimulation was performed before CFA injection, and no difference between the two pre-selected groups was found. The inflammatory pain was induced by […] of 50 μL undiluted Complete Freund's Adjuvant (CFA) ([…], Sigma) unilaterally into the intraplantar surface of the right hind paw, whereas control mice were injected with the same amount of 0.9% saline (B. Braun, Germany). All intraplantar injections were performed with and insulin needle (0.3 mL BD Micro-Fine) while the animal was under isoflurane anesthesia (2%) for maximum 60 seconds. On day 3 after CFA injection, mice were placed in individual red cylinders (8 cm in diameter, 7.5 cm tall) and thermal hyperalgesia was confirmed by a baseline reading with IR of 20. Three measurements were performed on each hindpaw of each mouse. A positive trial was defined as sudden paw withdrawal, flinching and/or paw licking induced by the infrared light. Measurements were performed before CFA injection, and at 3+4 days after CFA injection. At day 3, the measurements were performed before treatment, as well as 1, 5 and 21 hours after treatment. Peptide and vehicle were administered s.c. (10 μL/g)), and at a concentration of 0 or 10 μmol/kg. Statistical analysis was performed using GraphPad Prism 6.0. Two-way RM ANOVA followed by Bonferroni's post-hoc test. Significance level set to p<0.05.

PICK1 [3] = target: T1, PICK1 (Rattus norvegicus, UniProt Q9EP80); assay: Size exclusion chromatography of PICK1 in complex with inhibitor; conditions: 40 μM PICK1 with 10 μM inhibitor (4:1)
T1 construct: Full length rat PICK1 (pET41) was prepared as described earlier; inferred from pET41 vector and Glutathione-Sepharose capture) (N, cleaved yes); made in house; host or cells: E. coli BL21-DE3-pLysS
T1 sequence (Q9EP80 whole entry): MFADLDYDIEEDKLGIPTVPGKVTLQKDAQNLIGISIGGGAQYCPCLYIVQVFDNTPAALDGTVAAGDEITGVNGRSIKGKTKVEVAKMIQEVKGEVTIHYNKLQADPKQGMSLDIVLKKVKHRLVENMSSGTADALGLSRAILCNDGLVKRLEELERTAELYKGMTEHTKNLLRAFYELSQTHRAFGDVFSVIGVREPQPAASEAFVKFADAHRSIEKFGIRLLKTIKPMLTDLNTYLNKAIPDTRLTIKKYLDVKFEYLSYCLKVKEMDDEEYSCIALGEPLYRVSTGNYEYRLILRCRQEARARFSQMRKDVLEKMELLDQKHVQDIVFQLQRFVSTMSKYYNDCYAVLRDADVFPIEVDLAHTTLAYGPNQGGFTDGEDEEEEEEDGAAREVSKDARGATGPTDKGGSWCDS
Method: Full length rat PICK1 (pET41) was prepared as described earlier (Madsen et al., 2005). In brief, PICK1 was expressed in BL21-DE3-pLysS cells and grown at 37° C., induced at OD600=0.6 with 1 mM Isopropyl β-D-1-thiogalactopyranoside (IPTG) and grown 16 hrs at 20° C. Cultures were harvested and re-suspended in 50 mM trisaminomethane (Tris), 125 mM NaCl, 2 mM Dithiothreitol (DTT, Sigma), 1% Triton X-100 (Sigma), 20 μg/mL DNAse 1 and 1⁄2 a tablet cOmplete protease inhibitor cocktail (Roche) pr. 1 L culture. The re-suspended pellets were frozen at -80° C. for later purification. […] Each column was sealed and 0.075 U/μL, Novagen® was added for cleavage 0/N at 4° C. under gentle rotation. PICK1 was eluted on ice and absorption at 280 nm was measured on TECAN plate reader or on a NanoDrop3000. The protein concentration was determined using lambert beers law (A=ε[…]=32320 (cm*mol/L)^-1. Size exclusion chromatography: Size exclusion chromatography was performed using an Äkta purifier with a Superdex200 Increase 10/300 column, where 500 μL of 40 μM PICK1 in absence or presence of 10 μM […] was loaded to the column. Absorbance profile was measured at 280 nm and plotted against elution volume using Graph Pad Prism 8.3.

PICK1 [4] = target: T1, PICK1; assay: Fluorescence polarization competition binding to recombinant PICK1
Method: Full length rat PICK1 (pET41) was prepared as described earlier (Madsen et al., 2005). In brief, PICK1 was expressed in BL21-DE3-pLysS cells and grown at 37° C., induced at OD600=0.6 with 1 mM Isopropyl β-D-1-thiogalactopyranoside (IPTG) and grown 16 hrs at 20° C. Cultures were harvested and re-suspended in 50 mM trisaminomethane (Tris), 125 mM NaCl, 2 mM Dithiothreitol (DTT, Sigma), 1% Triton X-100 (Sigma), 20 μg/mL DNAse 1 and 1⁄2 a tablet cOmplete protease inhibitor cocktail (Roche) pr. 1 L culture. The re-suspended pellets were frozen at -80° C. for later purification. […] Each column was sealed and 0.075 U/μL, Novagen® was added for cleavage 0/N at 4° C. under gentle rotation. PICK1 was eluted on ice and absorption at 280 nm was measured on TECAN plate reader or on a NanoDrop3000. The protein concentration was determined using lambert beers law (A=ε[…]=32320 (cm*mol/L)^-1. Fluorescence polarization: Fluorescence polarization was carried out in competition mode at a fixed concentration of protein and tracer (5[…], 5 nM or 5[…], 20 nM), against an increasing concentration of indicated unlabelled peptide. The plate was incubated for 2 hours on ice in a black half-area Corning Black non-binding surface 96-well plate. The fluorescence polarization was measured directly on an Omega POLARstar plate reader using excitation filter at 488 nm and long pass emission filter at 535 nm. The data was plotted using GraphPad Prism 8.3, and fitted to the One site competition, to extract Ki,app value.

CCCCCCCCCCCCCC(=O)N(CCOCCOCCC(=O)N[C@@H](Cc1c[nH]cn1)C(=O)N[C@@H](Cc1c[nH]c2ccccc12)C(=O)N[C@@H](CC(C)C)C(=O)N[C@@H](CCCCN)C(=O)N[C@H](C(=O)O)C(C)C)CCOCCOCCC(=O)N[C@@H](Cc1c[nH]cn1)C(=O)N[C@@H](Cc1c[nH]c2ccccc12)C(=O)N[C@@H](CC(C)C)C(=O)N[C@@H](CCCCN)C(=O)N[C@H](C(=O)O)C(C)C [myr-NPEG4-(HWLKV)2]
Cmax ([1]; s.c. 3.75 mg/kg (2 μmol/kg)): 1450 ± 106 ng/mL
Cmax ([1]; s.c. 18.8 mg/kg (10 μmol/kg)): 6170 ± 508 ng/mL
Cmax ([1]; s.c. 93.8 mg/kg (50 μmol/kg)): 20300 ± 642 ng/mL
half-life ([1]; summary over doses): 30 to 45 min
pain relief (paw withdrawal latency), sensitized paw ([2]; 5 hours): less pronounced
paw withdrawal latency, contralateral (healthy) paw ([2]; day 3 after CFA): no significant changes
paw withdrawal latency, sensitized (ipsilateral) paw ([2]; day 3 after CFA): highly significant increase in paw withdrawal latency
pain relief (paw withdrawal latency), sensitized paw ([2]; following day (21 h)): fully dissolved
oligomeric state of PICK1 upon binding (SEC elution volume) (PICK1 [3]): forms higher order oligomeric structures of PICK1 upon binding
affinity increase compared to HWLKV (PICK1 [4]; FP competition): > 1000 fold
affinity increase compared to NPEG4-(HWLKV)2 (PICK1 [4]; FP competition): > 50 fold
Ki (PICK1 [4]; tracer 5FAM-NPEG4-(HWLKV)2 5 nM or 5FAM-HWLKV 20 nM (vs HWLKV), 2 hours on ice, read-out: Ki,app): 3 nM
